Data on 24 molecules can be found in patent US6617350B2, “Inhibitors of aspartyl protease” (priority 1999, dated 2003).

For assay [1], the target named is HIV-1 protease (Human immunodeficiency virus type 1 group M subtype B, UniProt P04585). Description: biochemical. Particulars: Table 12; HIV-1 protease; read-out: Ki.
Assay [2] relates to HIV-1 (strain IIIB). Kind of assay: microbe, parasite or virus in culture. The conditions noted are these: read-out: IC50. Format: cell-based.
The mark [3] stands for this setting: Human immunodeficiency virus 1, IIIB, MT4, Table 12, anti-viral potency in MT-4 cells.
The mark [4] stands for this setting: Human immunodeficiency virus 1, IIIB, MT4, Table 13, MT-4 cell based assay, class symbol.
Where [5] appears, read: Table 12, anti-viral potency in MT-4 cells.

Like-named read-outs stand apart in the source and are kept apart here.

For orientation: Ki means the equilibrium dissociation constant of an inhibitor or competing ligand from its target. The term IC50 denotes the midpoint of a concentration-inhibition curve. As for `COc1ccc(S(=O)(=O)N(CC(C)CCC#N)CC(O)C(Cc2ccccc2)NC(=O)OC2CCOC2)cc1` [Compound 8, (3S)-Tetrahydro-3-furanyl N-((1S,2R)-1-benzyl-3-[(2RS)-4-cyano-2-methyl][(4-methoxyphenyl)sulfonyl]amino-2-hydroxypropyl)carbamate], the inhibition constant Ki in assay [1] was less than 1 nM. For the same molecule, in assay [2] (setting [3]), the IC50 was no more than 100 nM.
Turning to `CCC(CCC#N)CN(CC(O)C(Cc1ccccc1)NC(=O)OC1CCOC1)S(=O)(=O)c1ccc(OC)cc1` [Compound 9, (3S)-Tetrahydro-3-furanyl N-((1S,2R)-1-benzyl-3-[(2RS)-4-cyano-2-ethyl][(4-methoxyphenyl)sulfonyl]amino-2-hydroxypropyl)carbamate], in assay [1], the Ki was less than 1 nM. For the same molecule, the IC50 in assay [2] (setting [3]) is greater than 1000 nM.
Consider `CC(C)(CCC#N)CN(CC(O)[C@H](Cc1ccccc1)NC(=O)OC1COC2OCCC12)S(=O)(=O)c1cccc(N)c1` (stereo partly drawn) [Compound 10, (3S,3aR,6aS)-Hexahydrofuro[2,3-b]furan-3-yl N-((1S,2R)-3-[(3-aminophenyl)sulfonyl](4-cyano-2,2-dimethylbutyl)-amino-1-benzyl-2-hydroxypropyl)carbamate], for which, in assay [1], the Ki is less than 1 nM. Moreover, the IC50 in assay [2] (setting [3]) is no more than 100 nM.
The matching figures for `COc1ccc(S(=O)(=O)N(CC(O)C(Cc2ccccc2)NC(=O)OC2COC3OCCC23)CC(C)(C)CCC#N)cc1` [Compound 11, (3S,3aR,6aS)-Hexahydrofuro[2,3-b]furan-3-yl N-((1S,2R)-1-benzyl-3-(4-cyano-2,2-dimethylbutyl)[(4-methoxyphenyl)sulfonyl]amino-2-hydroxypropyl)carbamate]: less than 1 nM and no more than 100 nM.
Regarding `CNc1cccc(S(=O)(=O)N(C[C@@H](O)[C@H](Cc2ccccc2)NC(=O)O[C@H]2CO[C@H]3OCC[C@H]32)CC(C)(C)CCC#N)c1` [Compound 12, (3R,3aS,6aR)-Hexahydrofuro[2,3-b]furan-3-yl N-[(1S,2R)-1-benzyl-3-((4-cyano-2,2-dimethylbutyl)[3-(methylamino)-phenyl]sulfonylamino)-2-hydroxypropyl]carbamate], the Ki in assay [1] is less than 1 nM. Besides, the IC50 in assay [2] (setting [3]) was no more than 100 nM; in assay [2] (setting [4]) it was 1 to 10 nM.
For the molecule `CC(C)(CCC#N)CN(CC(O)[C@H](Cc1ccccc1)NC(=O)OC1COC2OCCC12)S(=O)(=O)c1cccc(N)c1` (stereo partly drawn) [Compound 16, (3R,3aS,6aR)-Hexahydrofuro[2,3-b]furan-3-yl N-((1S,2R)-3-[(3-aminophenyl)sulfonyl](4-cyano-2,2-dimethylbutyl)amino-1-benzyl-2-hydroxypropyl)carbamate], the Ki in assay [1] was less than 1 nM. The IC50 in assay [2] (setting [5]) is no more than 100 nM.
For the molecule `CCC(CC)(CCC#N)CN(C[C@@H](O)[C@H](Cc1ccccc1)NC(=O)O[C@H]1CCOC1)S(=O)(=O)c1ccc(OC)cc1` [Compound 17, (3S)-Tetrahydro-3-furanyl N-((1S,2R)-1-benzyl-3-(4-cyano-2,2-diethylbutyl)[(4-methoxyphenyl)sulfonyl]amino-2-hydroxypropyl)carbamate], in assay [1], the Ki is less than 1 nM. The IC50 in assay [2] lay within 100 to 500 nM.
Regarding `COc1ccc(S(=O)(=O)N(C[C@@H](O)[C@H](Cc2ccccc2)NC(=O)O[C@H]2CCOC2)CC(C)(C)CCCC#N)cc1` [Compound 18, (3S)-Tetrahydro-3-furanyl N-((1S,2R)-1-benzyl-3-(5-cyano-2,2-dimethylpentyl)[(4-methoxyphenyl)sulfonyl]amino-2-hydroxypropyl)carbamate], the inhibitory constant (Ki) in assay [1] is less than 1 nM. The IC50 in assay [2] (setting [3]) was 100 to 500 nM.
With `COc1ccc(S(=O)(=O)N(C[C@@H](O)[C@H](Cc2ccccc2)NC(=O)OC2COCOC2)CC(C)(C)CCC#N)cc1` [Compound 19, {(1S,2R)-1-Benzyl-3-[(4-cyano-2,2-dimethyl-butyl)-(4-methoxy-benzenesulfonyl)-amino]-2-hydroxy-propyl}-carbamic acid[1,3]dioxan-5-yl ester], in assay [1], the inhibitory constant (Ki) was less than 1 nM. Besides, the concentration for half-maximal inhibition (IC50) in assay [2] (setting [3]) was in the range of 100 to 500 nM.
In the case of `COc1ccc(S(=O)(=O)N(C[C@@H](O)[C@H](Cc2ccccc2)NC(=O)C(C)CS(C)(=O)=O)CC(C)(C)CCC#N)cc1` (stereo partly drawn) [Compound 22, 1N-(3-Methylsulfonylisobutyryl)-(1S,2R)-1-benzyl-3-(4-cyano-2,2-dimethylbutyl)[4-methoxyphenylsulfonyl]amino-2-hydroxypropyl amine], in assay [1], the inhibitory constant (Ki) was less than 1 nM. For the same molecule, in assay [2] (setting [5]), the IC50 was in the range of 100 to 500 nM.
As to `CC(C)(CCC#N)CN(C[C@@H](O)[C@H](Cc1ccccc1)NC(=O)O[C@H]1CO[C@H]2OCC[C@H]21)S(=O)(=O)c1ccc2c(c1)OCO2` [Compound 25, {(1S,2R)-3-[(Benzo[1,3]dioxole-5-sulfonyl)-(4-cyano-2,2-dimethyl-butyl)-amino]-1-benzyl-2-hydroxy-propyl}-carbamic acid (3R, 3aS, 6aR)hexahydro-furo[2,3-b]furan-3-yl ester], the Ki in assay [1] was less than 1 nM. Further, the IC50 in assay [2] (setting [3]) is no more than 100 nM.
With `COc1ccc(S(=O)(=O)N(CCCCC#N)C[C@@H](O)[C@H](Cc2ccccc2)NC(=O)O[C@H]2CCOC2)cc1` [Compound 26, (3S)-Tetrahydro-3-furanyl N-((1S,2R)-1-benzyl-3-(4-cyanobutyl)[(4-methoxyphenyl)sulfonyl]amino-2-hydroxypropyl)carbamate], the Ki in assay [1] was less than 1 nM. In assay [2] (setting [3]), the IC50 was in the range of 100 to 500 nM.
On the same counts, the results for `CC(C)(CCC#N)CN(C[C@@H](O)[C@H](Cc1ccccc1)NC(=O)OC1COCOC1)C(=O)OCc1ccccc1` [Compound 28, (4-Cyano-2,2-dimethyl-butyl)-[(2R,3S)-3-([1,3]dioxan-5-yloxycarbonylamino)-2-hydroxy-4-phenyl-butyl]-carbamic acid benzyl ester] are less than 1 nM and 100 to 500 nM.
As to `CC(=O)Nc1ccc(S(=O)(=O)N(C[C@@H](O)[C@H](Cc2ccccc2)NC(=O)O[C@H]2CO[C@H]3OCC[C@H]32)CC(C)(C)CCC#N)cc1` [Compound 29, {(1S,2R)-3-[(4-Acetylamino-benzenesulfonyl)-(4-cyano-2,2-dimethyl-butyl)-amino]-1-benzyl-2-hydroxy-propyl}-carbamic acid (3R,3aS,6aR)hexahydro-furo[2,3-b]furan-3-yl ester], the inhibitory constant (Ki) in assay [1] was less than 1 nM. In assay [2] (setting [3]), the IC50 lay in the range of 100 to 500 nM.
On the same counts, the results for `CC(=O)Nc1cc(S(=O)(=O)N(C[C@@H](O)[C@H](Cc2ccccc2)NC(=O)O[C@H]2CO[C@H]3OCC[C@H]32)CC(C)(C)CCC#N)ccc1F` [Compound 30, {(1S,2R)-3-[(3-Acetylamino-4-fluoro-benzenesulfonyl)-(4-cyano-2,2-dimethyl-butyl)-amino]-1-benzyl-2-hydroxy-propyl}-carbamic acid (3R,3aS,6aR)hexahydro-furo[2,3-b]furan-3-yl ester] are less than 1 nM and no more than 100 nM.
The matching figures for `CC(=O)Nc1cccc(S(=O)(=O)N(C[C@@H](O)[C@H](Cc2ccccc2)NC(=O)O[C@H]2CO[C@H]3OCC[C@H]32)CC(C)(C)CCC#N)c1` [Compound 31, {(1S,2R)-3-[(3-Acetylamino-benzenesulfonyl)-(4-cyano-2,2-dimethyl-butyl)-amino]-1-benzyl-2-hydroxy-propyl}-carbamic acid (3R,3aS,6aR)hexahydro-furo[2,3-b]furan-3-yl ester]: less than 1 nM and no more than 100 nM.
In the case of `CC(C)(CCC#N)CN(CC(O)C(Cc1ccccc1)NC(=O)OC1COC2OCCC12)S(=O)(=O)c1ccc(OCc2ccccc2)cc1` [Compound 32, {(1S,2R)-3-[(4-benzyloxybenzenesulfonyl)-(4-cyano-2,2-dimethyl-butyl)-amino]-1-benzyl-2-hydroxy-propyl}-carbamic acid (2R,3aS,6aR)hexahydro-furo[2,3-b]furan-3-yl ester], the Ki in assay [1] was less than 1 nM. For the same molecule, the IC50 in assay [2] (setting [3]) lay in the range of 100 to 500 nM.
On to `CC(C)(CCC#N)CN(C[C@@H](O)[C@H](Cc1ccccc1)NC(=O)OC1COCOC1)S(=O)(=O)c1ccc(OCc2ccccc2)cc1` [Compound 33, {(1S,2R)-1-Benzyl-3-[(4-cyano-2,2-dimethyl-butyl)-(4-benzyloxybenzenesulfonyl)-amino]-2-hydroxy-propyl}-carbamic acid[1,3]dioxan-5-yl ester], for which, in assay [1], the inhibitory constant (Ki) was in the range of 10 to 100 nM. In addition, the IC50 in assay [2] (setting [3]) was in the range of 500 to 1000 nM.
In the case of `CC(C)(CCC#N)CN(CC(O)C(Cc1ccccc1)NC(=O)OC1COC2OCCC12)S(=O)(=O)c1ccc(O)cc1` [Compound 35, {(1S,2R)-3-[(4-hydroxybenzenesulfonyl)-(4-cyano-2,2-dimethyl-butyl)-amino]-1-benzyl-2-hydroxy-propyl}-carbamic acid (2R,3aS,6aR)hexahydro-furo[2,3-b]furan-3-yl ester], in assay [1], the Ki was less than 1 nM. For the same molecule, the IC50 in assay [2] (setting [3]) was no more than 100 nM.
The matching figures for `CC(C)(CCC#N)CN(C[C@@H](O)[C@H](Cc1ccccc1)NC(=O)OC1COCOC1)S(=O)(=O)c1ccc2c(c1)OCO2` [Compound 36, {(1S,2R)-3-[(Benzo[1,3]dioxole-5-sulfonyl)-(4-cyano-2,2-dimethyl-butyl)-amino]-1-benzyl-2-hydroxy-propyl}-carbamic acid[1,3]dioxan-5-yl ester]: less than 1 nM and no more than 100 nM.
The matching figures for `CC(C)(CCC#N)CN(CC(O)C(Cc1ccccc1)NC(=O)OC1COC2OCCC12)S(=O)(=O)c1ccc2c(c1)OCCO2` (centres unmarked) [Compound 37]: less than 1 nM and no more than 100 nM.
On the same counts, the results for `CNc1cccc(S(=O)(=O)N(CC(O)C(Cc2ccccc2)NC(=O)OC2COC3OCCC23)CC(C)(C)CCCC#N)c1` (centres unmarked) [Compound 38] are less than 1 nM and no more than 100 nM.
Turning to `CC(C)(CCCC#N)CN(CC(O)C(Cc1ccccc1)NC(=O)OC1COC2OCCC12)S(=O)(=O)c1ccc2c(c1)OCO2` (centres unmarked) [Compound 39], the inhibition constant (Ki) in assay [1] is less than 1 nM. In addition, the IC50 was no more than 100 nM in assay [2] (setting [3]) and 1 to 10 nM in assay [2] (setting [4]).
Turning to `CC(C)(CCCC#N)CN(CC(O)C(Cc1ccccc1)NC(=O)OC1COC2OCCC12)S(=O)(=O)c1ccc2c(c1)OCCO2` (centres unmarked) [Compound 40], the Ki in assay [1] was less than 1 nM. The IC50 in assay [2] (setting [3]) was no more than 100 nM.
